Measured values reported in patent US20230339970A1, “CASEIN KINASE 1 DELTA MODULATORS” (priority 2020, published 2023).
pIC50: −log10 of the molar value.

Tests used:
[1] = molecular target: T1, human CSNK1D (Homo sapiens, UniProt P48730); assay: Whole Cell nBRET CSNK1D Binding Assay; settings: living CHO cells stably expressing human CSNK1D tagged with nanoluciferase; NanoBret tracer 130 nM; 2 hours at 37 C
T1 construct: expressed in transfected cells

[2] = molecular target: T2, human recombinant GST cleaved CSNK1D (Homo sapiens, UniProt P48730); assay: Purified Enzyme Assay (ADP-Glo CSNK1D Kinase Assay); type: biochemical; settings: 2 nM CSNK1D; peptide substrate 150 μM; ATP 20 μM; 45 minutes at room temperature
T2 construct: GST (cleaved yes); purchased University of Dundee clone DU 19064
T2 sequence (P48730 whole entry): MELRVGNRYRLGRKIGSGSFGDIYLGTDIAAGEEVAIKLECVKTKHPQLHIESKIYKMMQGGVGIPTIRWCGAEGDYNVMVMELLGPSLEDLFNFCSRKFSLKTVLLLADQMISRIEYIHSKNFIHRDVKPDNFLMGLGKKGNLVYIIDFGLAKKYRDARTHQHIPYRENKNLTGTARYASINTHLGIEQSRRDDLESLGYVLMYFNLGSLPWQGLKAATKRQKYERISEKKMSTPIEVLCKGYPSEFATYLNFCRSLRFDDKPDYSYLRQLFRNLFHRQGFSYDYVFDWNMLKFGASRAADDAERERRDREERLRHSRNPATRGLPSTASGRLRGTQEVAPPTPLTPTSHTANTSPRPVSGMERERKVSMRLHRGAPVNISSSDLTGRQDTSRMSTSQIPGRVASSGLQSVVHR
In short: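 Percent activity derived from ADP-Glo quantification of ADP produced. Reactions: compound dose-response with human recombinant GST-cleaved CSNK1D, ATP and substrate peptide PLSRTL-pS-VASLPGL, incubated 45 min at room temperature.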

T1 sequence (P48730 whole entry): as above

SMILES	pIC50 [1]	pIC50 [2]
Cc1cnn2ccc(-c3c(-c4ccc(F)cn4)nn4c3COC(C)(C)C4)cc12 [Example 383, 2-(5-Fluoro-2-pyridyl)-6,6-dimethyl-3-(3-methylpyrazolo[1,5-a]pyridin-5-yl)-4,7-dihydropyrazolo[5,1-c][1,4]oxazine]	5.98	7.70
CC(C)[C@@H]1Cn2nc(-c3ccc(F)cn3)c(-c3ccnc4[nH]ncc34)c2CO1 (single isomer, unassigned) [Example 97, (*R)-2-(5-Fluoropyridin-2-yl)-6-isopropyl-3-(1H-pyrazolo[3,4-b]pyridin-4-yl)-6,7-dihydro-4H-pyrazolo[5,1-c][1,4]oxazine]	5.30	7.20
CC1(C)Cn2nc(-c3ccc(F)cn3)c(-c3c(F)cnc4[nH]ncc34)c2CO1 [Example 389, 3-(5-Fluoro-1H-pyrazolo[3,4-b]pyridin-4-yl)-2-(5-fluoropyridin-2-yl)-6,6-dimethyl-6,7-dihydro-4H-pyrazolo[5,1-c][1,4]oxazine]	7.03	8.30
Cc1cc(-c2c(-c3ccc(F)cn3)nn3c2OCCCC3)c2cn[nH]c2n1 [Example 219, 2-(5-Fluoro-2-pyridyl)-3-(6-methyl-1H-pyrazolo[3,4-b]pyridin-4-yl)-5,6,7,8-tetrahydropyrazolo[5,1-b][1,3]oxazepane]	6.55	7.42
Cn1cc2c(-c3c(-c4ccc(F)cn4)nn4c3COC(C)(C)C4)ccnc2n1 [Example 158, 2-(5-Fluoro-2-pyridyl)-6,6-dimethyl-3-(2-methylpyrazolo[3,4-b]pyridin-4-yl)-4,7-dihydropyrazolo[5,1-c][1,4]oxazine]	< 5.00	5.16
CCC(=O)Nc1cc(-c2c(-c3ccc(F)cn3)nn3c2OCCC3)ccn1 [Example 439, N-(4-(2-(5-Fluoropyridin-2-yl)-6,7-dihydro-5H-pyrazolo[5,1-b][1,3]oxazin-3-yl)pyridin-2-yl)propionamide]	7.12	8.22
Fc1ccc(-c2nn3c(c2-c2ccnc4[nH]ncc24)CCC(F)(COC(F)F)C3)nc1 (single isomer, unassigned) [Example 314, (*S)-4-(6-((Difluoromethoxy)methyl)-6-fluoro-2-(5-fluoropyridin-2-yl)-4,5,6,7-tetrahydropyrazolo[1,5-a]pyridin-3-yl)-1H-pyrazolo[3,4-b]pyridine]	7.85	8.40
COCCC1(C)CCc2c(-c3ccnc4[nH]ncc34)c(-c3ccc(F)cn3)nn2C1 (single isomer, unassigned) [Example 318, (*S)-4-[2-(5-Fluoro-2-pyridyl)-6-(2-methoxyethyl)-6-methyl-5,7-dihydro-4H-pyrazolo[1,5-a]pyridin-3-yl]-1H-pyrazolo[3,4-b]pyridine]	7.40	8.52
C[C@@H]1CCn2nc(-c3ccc(F)cn3)c(-c3ccnc4[nH]ncc34)c2O1 (single isomer, unassigned) [Example 199, (*R)-2-(5-Fluoro-2-pyridyl)-5-methyl-3-(1H-pyrazolo[3,4-b]pyridin-4-yl)-6,7-dihydro-5H-pyrazolo[5,1-b][1,3]oxazine]	6.73	7.92
CC1(C)Cc2c(-c3ccnc4[nH]nc(Cl)c34)c(-c3ccc(F)cn3)nn2C1 [Example 237, 3-Chloro-4-(2-(5-fluoropyridin-2-yl)-5,5-dimethyl-5,6-dihydro-4H-pyrrolo[1,2-b]pyrazol-3-yl)-1H-pyrazolo[3,4-b]pyridine]	7.89	8.40
Cc1cc(-c2c(-c3ccc(F)cc3)nn3c2CC[C@H]3C)c2cn[nH]c2n1 [Example 18, 4-[(6R)-2-(4-Fluorophenyl)-6-methyl-5,6-dihydro-4H-pyrrolo[1,2-b]pyrazol-3-yl]-6-methyl-1H-pyrazolo[3,4-b]pyridine]	7.72	8.70
Cc1cc(-c2c(-c3ccc(F)cn3)nn3c2OC(C)CC3C)c2cn[nH]c2n1 (single isomer, unassigned) [Example 207, (5*R,7*S)-2-(5-Fluoro-2-pyridyl)-5,7-dimethyl-3-(6-methyl-H-pyrazolo[3,4-b]pyridin-4-yl)-6,7-dihydro-5H-pyrazolo[5,1-b][1,3]oxazine]	5.75	7.29
Cn1ncc2nccc(-c3c(-c4ccc(F)cn4)nn4c3COC(C)(C)C4)c21 [Example 159, 2-(5-Fluoropyridin-2-yl)-6,6-dimethyl-3-(1-methyl-1H-pyrazolo[4,3-b]pyridin-7-yl)-6,7-dihydro-4H-pyrazolo[5,1-c][1,4]oxazine]	< 5.00	5.93
Cc1cc(-c2c(-c3ncc(F)cc3F)nn3c2CCCC3)c2cn[nH]c2n1 [Example 37, 4-[2-(3,5-Difluoro-2-pyridyl)-4,5,6,7-tetrahydropyrazolo[1,5-a]pyridin-3-yl]-6-methyl-1H-pyrazolo[3,4-b]pyridine]	6.68	7.96
[2H]C([2H])([2H])[C@]1(C(F)(F)F)Cn2nc(-c3ccc(F)cn3)c(-c3cc(C)nc4[nH]nc(C)c34)c2CO1 (single isomer, unassigned) [Example 428, (*R)-3-(3,6-Dimethyl-1H-pyrazolo[3,4-b]pyridin-4-yl)-2-(5-fluoropyridin-2-yl)-6-(methyl-d3)-6-(trifluoromethyl)-6,7-dihydro-4H-pyrazolo[5,1-c][1,4]oxazine]	7.12	8.05
Fc1ccc(-c2nn3c(c2-c2ccnc4[nH]nc(Cl)c24)OCC(F)(F)C3)cc1 [Example 470, 3-(3-Chloro-1H-pyrazolo[3,4-b]pyridin-4-yl)-6,6-difluoro-2-(4-fluorophenyl)-6,7-dihydro-5H-pyrazolo[5,1-b][1,3]oxazine]	7.77	9.00
C[C@]1(C(F)(F)F)Cn2nc(-c3ccc(F)cn3)c(-c3ccnc4[nH]ncc34)c2CO1 (single isomer, unassigned) [Example 178, (*R)-2-(5-Fluoropyridin-2-yl)-6-methyl-3-(1H-pyrazolo[3,4-b]pyridin-4-yl)-6-(trifluoromethyl)-6,7-dihydro-4H-pyrazolo[5,1-c][1,4]oxazine]	6.00	7.11
CC1(C)Cn2nc(-c3ccc(F)cn3)c(-c3ccnc(NC(=O)C4CC4(F)F)c3)c2CO1 (stereo not drawn) [Example 135, 2,2-Difluoro-N-(4-(2-(5-fluoropyridin-2-yl)-6,6-dimethyl-6,7-dihydro-4H-pyrazolo[5,1-c][1,4]oxazin-3-yl)pyridin-2-yl)cyclopropane-1-carboxamide]	8.22	8.52
Fc1ccc(-c2nn3c(c2-c2c(F)cnc4[nH]ncc24)CC2(C3)CC2(F)F)nc1 (single isomer, unassigned) [Example 258, (*S)-2,2-Difluoro-3′-(5-fluoro-1H-pyrazolo[3,4-b]pyridin-4-yl)-2′-(5-fluoropyridin-2-yl)-4′H,6′H-spiro[cyclopropane-1,5′-pyrrolo[1,2-b]pyrazole]]	7.15	8.22
Cc1cc(-c2c(-c3ccc(F)cc3)nn3c2OCC2(CC2)C3)c2cn[nH]c2n1 [Example 461, 2′-(4-Fluorophenyl)-3′-(6-methyl-1H-pyrazolo[3,4-b]pyridin-4-yl)-5′H,7′H-spiro[cyclopropane-1,6′-pyrazolo[5,1-b][1,3]oxazine]]	8.70	9.00
CC1n2nc(-c3ccc(F)cn3)c(-c3ccnc4[nH]ncc34)c2COC1(C)C (single isomer, unassigned) [Example 174, (*S)-2-(5-Fluoropyridin-2-yl)-6,6,7-trimethyl-3-(1H-pyrazolo[3,4-b]pyridin-4-yl)-6,7-dihydro-4H-pyrazolo[5,1-c][1,4]oxazine]	6.94	8.10
C[C@H]1CCCc2c(-c3ccnc4[nH]ncc34)c(-c3ccc(F)cc3)nn21 (single isomer, unassigned) [Example 40, (*S)-4-[2-(4-Fluorophenyl)-7-methyl-4,5,6,7-tetrahydropyrazolo[1,5-a]pyridin-3-yl]-1H-pyrazolo[3,4-b]pyridine]	7.39	8.40
Cc1cc(-c2c(-c3nccs3)nn3c2CCCC3)c2cn[nH]c2n1 [Example 30, 2-(3-(6-Methyl-1H-pyrazolo[3,4-b]pyridin-4-yl)-4,5,6,7-tetrahydropyrazolo[1,5-a]pyridin-2-yl)thiazole]	6.12	7.55
Cc1cc(-c2c(-c3ccc(F)cn3)nn3c2CCC3)c2cn[nH]c2n1 [Example 8, 4-[2-(5-Fluoro-2-pyridyl)-5,6-dihydro-4H-pyrrolo[1,2-b]pyrazol-3-yl]-6-methyl-1H-pyrazolo[3,4-b]pyridine]	7.06	8.40
[2H]C([2H])([2H])OC([2H])([2H])[C@@]1(F)CCc2c(-c3cc(C)nc4[nH]ncc34)c(-c3ccc(F)cn3)nn2C1 (single isomer, unassigned) [Example 313, (*R)-4-[6-[(Methoxy-d3)methyl-d2]-6-fluoro-2-(5-fluoro-2-pyridyl)-5,7-dihydro-4H-pyrazolo[1,5-a]pyridin-3-yl]-6-methyl-1H-pyrazolo[3,4-b]pyridine]	5.29	6.99
Cn1ncc2c(-c3c(-c4ccc(F)cn4)nn4c3COC(C)(C)C4)ccnc21 [Example 153, 2-(5-Fluoro-2-pyridyl)-6,6-dimethyl-3-(1-methylpyrazolo[3,4-b]pyridin-4-yl)-4,7-dihydropyrazolo[5,1-c][1,4]oxazine]	5.43	6.75
c1cc(-c2c(-c3cscn3)nn3c2CCCC3)c2cn[nH]c2n1 [Example 31, 4-(3-(1H-Pyrazolo[3,4-b]pyridin-4-yl)-4,5,6,7-tetrahydropyrazolo[1,5-a]pyridin-2-yl)thiazole]	6.00	7.19
